Measured values from patent US20190077795A1, “ARGININE […] INHIBITORS AND USES THEREOF” (Epizyme, Inc., priority 2014, published 2019).
Read-outs that look alike come from different tables or passages of the source.

What was measured:
human PRMT1 = molecular target: T1, human PRMT1 (Homo sapiens, UniProt Q99873); assay: PRMT1 Biochemical Assay; conditions: peptide substrate, 3H-SAM Flashplate assay; read-out: PRMT1 IC50
T1 construct: GST-tagged PRMT1; made in house; host or cells: High Five insect cells (baculovirus, pFastBac1)
Source text: (§1) S-adenosylmethionine (SAM), S-adenosylhomocysteine (SAH), bicine, Tween20, dimethylsulfoxide (DMSO), bovine skin gelatin (BSG), and Tris(2-carboxyethyl)phosphine hydrochloride solution (TCEP) were purchased from Sigma-Aldrich at the highest level of purity possible. ^3H-SAM was purchase from American Radiolabeled Chemicals with a specific activity of 80 Ci/mmol. 384-well streptavidin Flashplates were purchased from PerkinElmer.
Recombinant baculovirus were generated according to Bac-to-Bac kit instructions (Life Technologies). […] Infections were carried out at 27° C. for 48 hours, harvested by centrifugation, and stored at −80° C. for purification.
GST-tagged PRMT1 was eluted with 50 mM Tris, 2 mM glutathione, pH 7.8, dialysed in buffer A and concentrated to 1 mg/mL.
General Procedure for PRMT1 Enzyme Assays on Peptide Substrates.
(§2) The assays were all performed in a buffer consisting of 20 mM Bicine (pH=7.6), 1 mM TCEP, 0.005% BSG, and 0.002% Tween 20, prepared on the day of use. […] DMSO (1 ul) was added to Columns 11, 12, 23, 24, rows A-H for the maximum signal control and 1 ul of SAH, a known product and inhibitor of PRMT1, was added to columns 11, 12, 23, 24, rows I-P for the minimum signal control. A cocktail (40 ul) containing the PRMT1 enzyme was added by Multidrop Combi (Thermo-Fisher). The compounds were allowed to incubate with PRMT1 for 30 min at room temperature, then a cocktail (10 ul) containing SAM and peptide was added to initiate the reaction (final volume=51 ul). […] The assays were stopped by the addition of non-radiolabeled SAM (10 ul) to a final concentration of 300 uM, which dilutes the ^3H-SAM to a level where its incorporation into the peptide substrate is no longer detectable. 50 ul of the reaction in the 384-well polypropylene plate was then transferred to a 384-well Flashplate and the biotinylated peptides were allowed to bind to the streptavidin surface for at least 1 hour before being washed once with 0.1% Tween20 in a Biotek ELx405 plate washer. The plates were then read in a PerkinElmer TopCount plate reader to measure the quantity of ^3H-labeled peptide bound to the Flashplate surface, measured as disintegrations per minute (dpm) or alternatively, referred to as counts per minute (cpm).
(§3) Where dpm=disintegrations per minute, cmpd=signal in assay well, and min and max are the respective minimum and maximum signal controls.
(§4) Where top and bottom are the normally allowed to float, but may be fixed at 100 or 0 respectively in a 3-parameter fit. The Hill Coefficient normally allowed to float but may also be fixed at 1 in a 3-parameter fit. Y is the % inhibition and X is the compound concentration.

human PRMT6 = molecular target: T2, human PRMT6 (Homo sapiens, UniProt Q96LA8); assay: PRMT6 Biochemical Assay
T2 construct: Flag-PRMT6-His; made in house; host or cells: HEK 293F cells (BacMam baculovirus, pFastBacMam)
Source text: as §1, with “(BSG), sodium butyrate” for “(BSG),”
Peptide representative of human histone H4 residues 36-50 was synthesized with an N-terminal linker-affinity tag motif and a C-terminal amide cap by 21st Century Biochemicals.
The amplified gene was subcloned into pFastBacMam (Viva Biotech).
Recombinant baculovirus were generated according to Bac-to-Bac kit instructions (Life Technologies). […] Infections were carried out at 37° C. for 48 hours, harvested by centrifugation, and stored at −80° C. for purification.
Column was washed with 20 mM imidazole in the same buffer and Flag-PRMT6-His was eluted with 150 mM imidazole. Pooled fractions were dialysed against buffer Ni-A and further purified by anti-flag M2 affinity chromatography. Flag-PRMT6-His was eluted with 200 ug/ml FLAG peptide in the same buffer. Pooled fractions were dialysed in 20 mM Tris, 150 mM NaCl, 10% glycerol and 5 mM β-mercaptoethanol, pH 7.8.
General Procedure for PRMT6 Enzyme Assays on Peptide Substrates.
as §2, with “PRMT6,” for “PRMT1,”, “PRMT6” for “PRMT1”, “400” for “300”
as §3, §4

[1] = test system: mono-methyl arginine in RKO cells; assay: RKO Methylation Assay, In Cell Western (ICW); format: cell-based; conditions: 72 hours
Source text: RKO adherent cells were purchased from ATCC (American Type Culture Collection), Manassas, Va., USA. DMEM/Glutamax medium, penicillin-streptomycin, heat inactivated fetal bovine serum, 0.05% trypsin and D-PBS were purchased from Life Technologies, Grand Island, N.Y., USA. Odyssey blocking buffer, 800CW goat anti-rabbit IgG (H+L) antibody, and Licor Odyssey infrared scanner were purchased from Licor Biosciences, Lincoln, Nebr., USA. Mono-methyl arginine antibody was purchased from Cell Signaling Technology, Danvers, Mass., USA. Methanol was purchased from VWR, Franklin, Mass., USA. 10% Tween 20 was purchased from KPL, Inc., Gaithersburg, Md., USA. DRAQ5 was purchased from Biostatus Limited, Leicestershire, UK.
RKO adherent cells were maintained in growth medium (DMEM/Glutamax medium supplemented with 10% v/v heat inactivated fetal bovine serum and 100 units/mL penicillin-streptomycin) and cultured at 37° C. under 5% CO2.
Cell treatment, In Cell Western (ICW) for detection of mono-methyl arginine and DNA content.
Compound (100 nL) from a 96-well source plate was added directly to 384 well cell plate. Plates were incubated at 37° C., 5% CO2 for 72 hours. After three days of incubation, plates were brought to room temperature outside of the incubator for ten minutes and blotted on paper towels to remove cell media. 50 μL of ice cold 100% methanol was added directly to each well and incubated for 30 min at room temperature. After 30 min, plates were transferred to a Biotek EL406 plate washer and washed 2 times with 100 μL per well of wash buffer (1×PBS). Next 60 μL per well of Odyssey blocking buffer (Odyssey Buffer with 0.1% Tween 20 (v/v)) were added to each plate and incubated 1 hour at room temperature. Blocking buffer was removed and 20 μL per well of primary antibody was added (mono-methyl arginine diluted 1:200 in Odyssey buffer with 0.1% Tween 20 (v/v)) and plates were incubated overnight (16 hours) at 4° C. Plates were washed 5 times with 100 μL per well of wash buffer. […] The plates were washed 5 times with 100 μL per well wash buffer then 2 times with 100 μL per well of water. Plates were allowed to dry at room temperature then imaged on the Licor Odyssey machine which measures integrated intensity at 700 nm and 800 nm wavelengths. Both 700 and 800 channels were scanned.
First, the ratio for each well was determined by:
Each plate included fourteen control wells of DMSO only treatment (minimum activation) as well as fourteen control wells for maximum activation treated with 20 μM of a reference compound. The average of the ratio values for each control type was calculated and used to determine the percent activation for each test well in the plate. Reference compound was serially diluted three-fold in DMSO for a total of nine test concentrations, beginning at 20 μM. Percent activation was determined and EC30 curves were generated using triplicate wells per concentration of compound.

human PRMT8 = human PRMT8 (Homo sapiens, UniProt Q9NR22); assay: PRMT8 Biochemical Assay; conditions: PRMT8 IC50 (uM), peptide substrate, 3H-SAM Flashplate assay
[2] = peptide substrate, 3H-SAM Flashplate assay, read-out: PRMT6 IC50

T2 sequence (Q96LA8 with tags, fused parts or gaps): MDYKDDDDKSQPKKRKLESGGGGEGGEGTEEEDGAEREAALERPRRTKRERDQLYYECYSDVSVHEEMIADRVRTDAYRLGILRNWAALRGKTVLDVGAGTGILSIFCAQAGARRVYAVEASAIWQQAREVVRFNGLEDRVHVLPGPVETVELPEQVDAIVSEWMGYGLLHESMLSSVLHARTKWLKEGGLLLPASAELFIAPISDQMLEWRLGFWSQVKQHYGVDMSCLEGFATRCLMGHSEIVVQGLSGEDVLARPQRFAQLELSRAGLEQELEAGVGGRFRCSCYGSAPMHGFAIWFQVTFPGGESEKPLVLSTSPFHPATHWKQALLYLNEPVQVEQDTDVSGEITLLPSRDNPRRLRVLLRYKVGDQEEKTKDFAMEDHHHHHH
T1 sequence (Q99873 with tags, fused parts or gaps): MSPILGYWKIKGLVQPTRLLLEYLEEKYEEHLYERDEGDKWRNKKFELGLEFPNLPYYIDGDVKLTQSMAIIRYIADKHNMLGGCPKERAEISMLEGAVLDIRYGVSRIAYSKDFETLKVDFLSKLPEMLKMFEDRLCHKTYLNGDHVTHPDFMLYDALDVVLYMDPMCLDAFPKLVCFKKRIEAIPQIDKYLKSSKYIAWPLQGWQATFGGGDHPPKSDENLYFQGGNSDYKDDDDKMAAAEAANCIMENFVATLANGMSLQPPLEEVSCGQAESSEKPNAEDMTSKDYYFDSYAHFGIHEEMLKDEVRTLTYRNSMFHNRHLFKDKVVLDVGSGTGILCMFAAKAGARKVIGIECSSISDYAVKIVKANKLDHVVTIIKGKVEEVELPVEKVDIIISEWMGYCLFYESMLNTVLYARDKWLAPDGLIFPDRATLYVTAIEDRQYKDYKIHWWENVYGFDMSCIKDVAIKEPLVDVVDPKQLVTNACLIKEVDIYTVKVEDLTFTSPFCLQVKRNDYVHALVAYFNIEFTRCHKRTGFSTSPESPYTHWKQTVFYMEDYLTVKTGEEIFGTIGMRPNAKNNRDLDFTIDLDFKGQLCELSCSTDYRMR
Sequence of human PRMT8 (Q9NR22 whole entry): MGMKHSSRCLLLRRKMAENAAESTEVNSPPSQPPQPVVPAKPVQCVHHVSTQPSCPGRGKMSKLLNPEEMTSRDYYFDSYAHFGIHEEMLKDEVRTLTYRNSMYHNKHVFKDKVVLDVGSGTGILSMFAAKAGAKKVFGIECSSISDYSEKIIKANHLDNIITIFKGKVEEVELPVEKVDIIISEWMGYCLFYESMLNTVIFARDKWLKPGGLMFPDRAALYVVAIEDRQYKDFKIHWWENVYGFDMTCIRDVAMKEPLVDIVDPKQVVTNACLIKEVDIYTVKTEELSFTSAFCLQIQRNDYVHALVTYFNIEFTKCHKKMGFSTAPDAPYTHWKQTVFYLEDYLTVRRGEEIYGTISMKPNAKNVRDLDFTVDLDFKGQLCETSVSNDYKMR

| Compound | IC50 (human PRMT1) | IC50 (human PRMT6; [2]) | IC50 (human PRMT8) | ICW EC30 [1] | IC50 (human PRMT6; PRMT6 IC50 (uM)) |
| --- | --- | --- | --- | --- | --- |
| CNCCN(C)Cc1c[nH]nc1-c1ccc(OCCOc2cccc(OCCC3CCOCC3)c2)cc1 [Compound 14] | 5.49 nM | 0.00518 µM | 0.0146 µM | 347.3 nM | – |
| CNCCN(C)Cc1c[nH]nc1-c1ccc(OCCOc2ccc(Oc3ccc(OCCOC)cc3)cc2)cc1 [Compound 15] | 5.79 nM | 0.00238 µM | 0.0193 µM | 220.1 nM | – |
| CNCCN(C)Cc1c[nH]nc1-c1ccc(OCCOc2ccc(CO)cc2)cc1 [Compound 16] | 5.8 nM | 0.0037 µM | 0.0206 µM | 276.3 nM | – |
| CCC(CC)Oc1ccc(-n2nccc2CN(C)CCNC)cc1 [Compound 18] | 5.86 nM | – | 0.0153 µM | 91.46 nM | 0.0678 µM |
| CCN(CCOc1ccc(OC)cc1)c1ccc(-c2n[nH]cc2CN(C)CCNC)cc1 [Compound 20] | 6.16 nM | 0.0169 µM | 0.0199 µM | 336.2 nM | – |
| CNCCN(C)Cc1c[nH]nc1-c1ccc(OCCOc2ccc(C(O)CO)cc2)cc1 (centres unmarked) [Compound 21] | 6.23 nM | 0.00616 µM | 0.026 µM | 3184 nM | – |
| CNCCN(C)Cc1c[nH]nc1-c1cc(F)c(OC2COC2)c(C(F)(F)F)c1 [Compound 23] | 6.47 nM | 0.0169 µM | 0.0608 µM | 1296 nM | – |
| CNCCN(C)Cc1c[nH]nc1-c1cc(OCCOC)cc(C(F)F)c1 [Compound 24] | 6.5 nM | 0.212 µM | 0.132 µM | 1251 nM | – |
| CNCCN(C)Cc1c[nH]nc1-c1ccc(OCCc2ccccc2)cc1 [Compound 25] | 6.68 nM | 0.011 µM | 0.0173 µM | 97 nM | – |
| CNCCN(C)Cc1c[nH]nc1-c1cc(F)c(Cl)c(C(F)(F)F)c1 [Compound 27] | 6.75 nM | 0.0214 µM | 0.037 µM | 377 nM | – |
| COCCOc1cc(-c2n[nH]cc2CN(C)CCN)cc(C(F)F)c1 [Compound 29] | 6.94 nM | 0.276 µM | 0.112 µM | 5437 nM | – |
| CN(CCN)Cc1c[nH]nc1-c1cc(F)c(Cl)c(C(F)(F)F)c1 [Compound 30] | 7.05 nM | 0.0135 µM | 0.0608 µM | 648 nM | – |
| CNCCN(C)Cc1c[nH]nc1-c1ccc(OCCOc2cccc(OCCC(O)CO)c2)cc1 (centres unmarked) [Compound 31] | 7.08 nM | 0.00432 µM | 0.02 µM | 2325.4 nM | – |

The next compounds have a lower IC50 (human PRMT1) than those just listed; values first:

| IC50 (human PRMT1) | IC50 (human PRMT6; [2]) | IC50 (human PRMT8) | Compound | ICW EC30 [1] | IC50 (human PRMT6; PRMT6 IC50 (uM)) |
| --- | --- | --- | --- | --- | --- |
| 4.79 nM | 0.00343 µM | 0.0192 µM | CNCCN(C)Cc1c[nH]nc1-c1ccc(OCCOc2ccc(Oc3ccccc3)cc2)cc1 [Compound 6] | 328.2 nM | – |
| 4.86 nM | 0.0131 µM | 0.0124 µM | C=C(C)COc1c(Cl)cc(-c2n[nH]cc2CN(C)CCNC)cc1Cl [Compound 7] | 91.54 nM | – |
| 4.91 nM | 0.00449 µM | 0.00939 µM | CNCCN(C)Cc1c[nH]nc1-c1ccc(OCCOc2cccc(OCCN3CCOCC3)c2)cc1 [Compound 8] | 233.7 nM | – |
| 5.12 nM | 0.00222 µM | 0.024 µM | CNCCN(C)Cc1c[nH]nc1-c1ccc(OCCOc2ccc(OCc3ccccc3)cc2)cc1 [Compound 9] | 329.1 nM | – |
| 5.21 nM | 0.00825 µM | 0.0124 µM | CNCCN(C)Cc1c[nH]nc1-c1ccc(N(C)CCCOc2ccc(OC)cc2)cc1 [Compound 10] | 176.2 nM | – |
| 5.23 nM | 0.00403 µM | 0.0133 µM | CNCCN(C)Cc1c[nH]nc1-c1ccc(OCCOc2ccc(C3CCOCC3)cc2)cc1 [Compound 11] | 113.8 nM | – |
| 5.25 nM | 0.0146 µM | 0.0264 µM | CNCCN(C)Cc1c[nH]nc1-c1ccc(N(C)CCCOc2ccc(OC)cc2)cc1 [Compound 12] | 449.8 nM | – |
